# Source: patent publication US20150164899A1, “INHIBITION OF ADAPTOR ASSOCIATED KINASE 1 FOR THE TREATMENT OF PAIN” (priority 2012, published 2015)
# Like-named read-outs stand apart in the source and are kept apart here.
# Experiments:
# [1] = system: formalin-induced paw flinching; experiment: formalin paw test; assay type: in vivo; conditions: mice
# Method: See example 5.4.1, above. The same test was used to confirm that the administration of an AAK1 inhibitor can also affect pain response.
# Mice were tested for nociception with Automatic Nociception Analyzers (purchased from the Ozaki lab at University of California, San Diego). A metal band was placed around the left hind paw of each mouse with superglue 30 minutes prior to testing. After the 30-minute acclimation period, 20 μl of 5% formalin was subcutaneously injected in the dorsal surface of the left hind paw. Mice were individually housed in cylindrical chambers for 45 minutes. Fresh 5% formalin solution was prepared by diluting formaldehyde (Formalde-fresh 20%, Fisher Scientific, Fair Lawn, N.J.) with distilled water. Investigatory compounds were administered 30 minutes prior to formalin injection.
# A computer software recorded flinches per minute, total flinches for Phase I (acute phase=first 8 minutes), and total flinches for Phase II (tonic phase between 20-40 minutes) through an electromagnetic field. See Yaksh T L, Ozaki G, McCumber D, Rathbun M, Svensson C, Malkmus S, Yaksh M C. An automated flinch detecting system for use in the formalin nociceptive bioassay. J Appl Physiol., 2001; 90:2386-402.
# Various compounds of the invention were tested at different doses. Gabapentin and pregabalin were used as positive controls. Results are shown below in Table 2, wherein “*” means an effect equal to or greater than 50 percent of that of gabapentin at 200 mpk, “**” means an effect equal to or greater than 100 percent of that of gabapentin at 200 mpk, “sc” means subcutaneous administration, “ip” means in intraperitoneal administration, and “po” means oral administration.
# [2] = molecular target: T1, AAK1 (full-length human protein) (Homo sapiens, UniProt Q2M2I8); experiment: P81 filter plate assay; assay type: biochemical
# T1 construct: NP_055726.2
# T1 sequence (Q2M2I8 1-863 isoform Q2M2I8-2): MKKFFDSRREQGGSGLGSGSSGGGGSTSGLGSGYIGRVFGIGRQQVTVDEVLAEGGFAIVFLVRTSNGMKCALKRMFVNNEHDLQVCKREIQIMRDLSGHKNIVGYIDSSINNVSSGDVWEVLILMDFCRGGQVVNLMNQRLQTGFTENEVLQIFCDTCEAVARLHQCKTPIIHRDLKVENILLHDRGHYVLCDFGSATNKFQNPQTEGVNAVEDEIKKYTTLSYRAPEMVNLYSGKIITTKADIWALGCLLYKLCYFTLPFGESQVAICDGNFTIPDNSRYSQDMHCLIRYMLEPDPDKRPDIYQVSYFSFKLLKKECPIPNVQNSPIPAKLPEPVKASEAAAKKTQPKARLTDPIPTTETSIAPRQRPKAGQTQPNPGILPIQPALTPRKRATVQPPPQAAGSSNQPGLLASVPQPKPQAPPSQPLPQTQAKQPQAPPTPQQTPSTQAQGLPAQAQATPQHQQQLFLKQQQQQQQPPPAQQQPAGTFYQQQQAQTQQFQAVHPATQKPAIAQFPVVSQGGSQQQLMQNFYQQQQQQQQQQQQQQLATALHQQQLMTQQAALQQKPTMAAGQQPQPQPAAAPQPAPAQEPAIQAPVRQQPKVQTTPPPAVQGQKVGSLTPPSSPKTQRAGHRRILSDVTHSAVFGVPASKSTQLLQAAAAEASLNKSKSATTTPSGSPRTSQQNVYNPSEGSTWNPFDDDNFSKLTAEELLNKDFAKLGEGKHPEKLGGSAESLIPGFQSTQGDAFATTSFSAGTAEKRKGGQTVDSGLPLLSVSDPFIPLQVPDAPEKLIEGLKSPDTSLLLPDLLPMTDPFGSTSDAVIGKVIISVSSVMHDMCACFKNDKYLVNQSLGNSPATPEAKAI
# Method: Compounds were serially diluted into a Labcyte LDV plate (Labcyte, cat# LP-0200) using a Mutiprobe (PerkinElmer) and Biomek FX (Beckman Coulter) so that the highest compound concentration was at 96 μM. Compounds were then pinged (75 nL per well) into a Greiner 384-well reaction plate (Greiner, #781076) using an ECHO 550 Liquid Handler (Labcyte). A total of 12 μl reaction buffer (IMAP buffer containing Tween and DTT, from Molecular Devices) was then added to each well of columns 1 and 13 for the negative controls and 12 μl of 2×AAK1 (0.2 nM full-length human protein, NCBI accession no. NP_055726.2) was added to the remaining wells. Enzyme was then pre-incubated with compound for 10 minutes at RT. Reactions were initiated upon Minitrak (PerkinElmer) addition of 12 μl substrate mix containing 2× Mu2 (0.2 μM, full length human protein), 2× cold ATP (2 μM), and 1.3 μCi of hot ^33P-ATP. Reactions proceeded for one hour at RT. Meanwhile, Millipore 384-well P81 filter plates (Millipore, catalog # MZPHN0W10) were placed on a plate washer (Zoom Z W, from Titertek) and pre-wet with 50 μl 1% phosphoric acid. Kinase reactions were then stopped upon addition of 24 μl of 2% phosphoric acid to each well and the Minitrak was then used to transfer 40 μl from each well into the pre-wet Millipore 384-well P81 filter plates. Reaction mixtures were incubated for 10 minutes at RT in the P81 plates, followed by washing five times with 100 μl/well of 1% phosphoric acid using the Zoom filter washer. The bottom of each filter plate was sealed followed by addition of 20 μl Microscint 40 to each well, sealing the top of the plates with Flashplate cover, and then waiting one hour until reading on the TopCount (PerkinElmer).
# [3] = molecular target: T2, AAK1 (full length human) in transfected HEK293F cells (Homo sapiens, UniProt Q2M2I8); experiment: HEK281 cell-based assay (phospho-mu2 Western blot); conditions: HEK281 cell-based assay, read-out: CBA IC50
# T2 construct: expressed in transfected cells; host or cells: HEK293F
# T2 sequence (Q2M2I8 1-863 isoform Q2M2I8-2): as above
# Method: HEK293F cells were cultured in media containing DMEM (Gibco, cat. #11965), 10% FBS (SAFC Biosciences, cat. #12103C), 1×GPS (glutamine, penicillin and streptomycin). On day one, cells were plated on a 10 cm dish so that they are ˜80% confluent at time of transfection. Roughly 12 million cells were in a 10 cm dish at time of transfection. On day two, each dish was transfected with 48 ug DNA and 144 ul Lipofectamine 2000 (Invitrogen, cat.#11668-019). The DNA was comprised of a mixture (per 10 cm dish) containing 3 ug AAK1/HA/pIRES (full length human, NCBI accession no. NP_055726.2), 45 μg Flag/AP2MI/pcDNA (full length human), and 1.5 ml OPTI-MEM. The Lipofectamine 2000 is made up of a mixture (per 10 cm dish) containing 144 μl Lipofectamine 2000 and 1.5 ml OPTI-MEM. Each mixture was transferred to individual 15 ml tubes and incubated at RT for 5 minutes, and then the two mixes were combined and incubated at RT for 20 minutes. Growth media was then aspirated from each 10 cm plate and replaced with 10 ml of DMEM+10% FBS (no GPS). Finally, 3 ml DNA/Lipofectamine mix was added to each 10 cm dish and mix gently followed by incubate of plate overnight at 37° C. and 5% CO2.
# On day three, compounds were diluted in 100% DMSO at 1000× final concentration, followed by 3-fold serial dilutions for a total of 5 concentrations tested. Four compounds were tested per 10 cm dish. One ul of each compound dilution was then pipetted into a deep-well, 96-well plate, followed by addition of 500 μl DMEM+0.5% FBS into each well for a 2× final concentration of each compound. Cells were resuspended in a 10 cm dish by simple pipetting (HEK293 cells come off the plate that easy at this point) and then transferred to a 50 ml conical tube and pelleted by centrifugation at 1000 rpm for 5 min. Cell pellets were then resuspended in 2.75 ml DMEM+0.5% FBS per 10 cm dish and 100 μl of cell suspension transferred into each well of 96-well TC plate. Finally, 100 μl of 2× compound diluted in DMEM+0.5% FBS was then added into wells containing cell suspension for a 1× final concentration. Plates were then incubated at 37° C. and 5% CO2 for 3 hours followed by transferring of cell suspensions from each well into 12-tube PCR strips. The PCR strips were spun in a tip rack at 1000 rpm for 5 minutes to pellet cells and media was then removed by pipetting without disturbing the cell pellet.
# To prepare for Western Blot analysis, cell pellets were resuspend in 40 ul 1×LDS-PAGE sample buffer (Invitrogen, cat.# NP0008)+2× Halt phophatase and protease inhibitor cocktail (Thermo Scientific, cat.#1861284), followed by sonicating each with microtip sonicator set at 5 for 8-10 seconds. Five ul of 10× NuPage Sample Reducing Agent (with […]) was to each sample followed by heat denaturing at 70 C. for 10 min on PCR machine. A total of 10 μl per sample was loaded into each lane of a 4-20% Tris-Glycine Criterion 26-well gel (Biorad, cat.#345-0034) for the phospho-mu2 blot and 10 μl per lane in a 4-12% Bis-Tris (+MES buffer) NuPAGE 26-well gel (Invitrogen, cat.# WG1403BX10) for the mu2 blot. For controls, 2 ng of phospho-mu2 or 20 ng mu2/Flag proteins were loaded in the last well of each gel. After SDS-PAGE, samples on each gel were transferred to PVDF membrane using an iBlot and membranes were blocked for one hour in TBST+5% milk, followed by wash 3× for 5-10 min with TBST. Criterion gels were probed with rabbit anti-phospho-mu2 (1:5000; a rabbit polyclonal antibody produced by New England Peptide and affinity purified at Lexicon) in TBST+5% BSA, whereas, NuPAGE gels were probed with mouse anti-Flag (1:500; Sigma, cat.# F1804) in TBST+5% milk, and these primary antibodies were incubated overnight at 4° C. on a rocker.
# [4] = pyrazolo[1,5-a]pyrimidine-based inhibitors
# [5] = Table 1 imidazo[1,2-b]pyridazines
Structure (SMILES),"IC50 [2, 4] [µM]","IC50 [3, 4] [µM]",also measured
"CC(C)C[C@@H](N)COc1ccc2c(c1)OCc1cnccc1-2 [(R)-1-(5H-chromeno[3,4-c]pyridin-8-yloxy)-4-methylpentan-2-amine]",,,"Effect ([1]; 10 mpk sc, given as a number, relative to gabapentin at 200 mpk): 45%; Effect ([1]; 30 mpk sc): * (an effect equal to or greater than 50% of that of gabapentin at 200 mpk)"
"COc1ncccc1-c1cnc2ccc(N3CC[C@H](N(C)C(=O)OC(C)C)C3)nn12 [(S)-isopropyl (1-(3-(2-methoxypyridin-3-yl)imidazo[1,2-b]pyridazin-6-yl)pyrrolidin-3-yl)(methyl)carbamate]",,,Effect ([1]; 10 mpk po): * (an effect equal to or greater than 50% of that of gabapentin at 200 mpk); Effect ([1]; 30 mpk po): ** (an effect equal to or greater than 100% of that of gabapentin at 200 mpk); Effect ([1]; 60 mpk po): ** (an effect equal to or greater than 100% of that of gabapentin at 200 mpk)
"CCCCNc1ccc2ncc(-c3ccc(C(=O)NCCN)cc3)n2n1 [N-(2-aminoethyl)-4-(6-(butylamino)imidazo[1,2-b]pyridazin-3-yl)benzamide]",,,Effect ([1]; 30 mpk ip): ** (an effect equal to or greater than 100% of that of gabapentin at 200 mpk)
"COc1ncccc1-c1cnn2ccc(N3CCN(C(=O)OC(C)C)CC3)nc12 [isopropyl 4-(3-(2-methoxypyridin-3-yl)pyrazolo[1,5-a]pyrimidin-5-yl)piperazine-1-carboxylate]",,,Effect ([1]; 10 mpk po): * (an effect equal to or greater than 50% of that of gabapentin at 200 mpk); Effect ([1]; 30 mpk po): ** (an effect equal to or greater than 100% of that of gabapentin at 200 mpk)
"NCc1ccc(-c2cnc3ccc(NCCOC4CCCC4)nn23)cc1 [3-(4-(aminomethyl)phenyl)-N-(2-(cyclopentyloxy)ethyl)imidazo[1,2-b]pyridazin-6-amine]",,,Effect ([1]; 60 mpk sc): ** (an effect equal to or greater than 100% of that of gabapentin at 200 mpk); Effect ([1]; 100 mpk sc): ** (an effect equal to or greater than 100% of that of gabapentin at 200 mpk)
COc1ncccc1-c1cnn2ccc(N3CCN(C(=O)N(C)C(C)C)CC3)nc12,≤ 0.01,≤ 0.1,
CC(C)(C)NC(=O)N1CCC[C@H]1CNc1ccn2ncc(Br)c2n1,≤ 0.01,≤ 0.01,
COc1cncc(-c2cnn3ccc(N4CCN(C(=O)OC(C)C)CC4)nc23)c1,≤ 0.01,≤ 0.1,
COc1ccccc1-c1cnn2ccc(NC[C@@H]3CCCN3C(=O)OC(C)C)nc12,≤ 0.01,≤ 0.01,
O=C(CC(F)(F)F)N1CCC[C@H]1CNc1ccn2ncc(-c3ccncc3)c2n1,≤ 0.01,≤ 0.1,
FC(F)(F)CN1CCCC1CNc1ccn2ncc(Br)c2n1 (stereo not shown),≤ 0.01,≤ 0.1,
COc1ncccc1-c1cnn2ccc(N3CCN(C(=O)N(C)C(C)(C)C)CC3)nc12,≤ 0.01,≤ 0.1,
COc1ccc(-c2cnn3ccc(N4CCN(C(=O)OC(C)C)CC4)nc23)c(OC)n1,≤ 0.01,≤ 0.01,
CC(C)OC(=O)N1CCN(c2ccn3ncc(-c4cccnc4Cl)c3n2)CC1,≤ 0.1,≤ 1,
COc1ncccc1-c1cnn2ccc(N3CCN(C(=O)NC(C)C)CC3)nc12,≤ 0.01,≤ 0.01,
CC(C)(C)CCN1C(=O)CC[C@H]1CNc1ccn2ncc(Br)c2n1,≤ 0.01,≤ 0.1,
CC(C)(C)OC(=O)N1CCC[C@H]1CNc1ccn2ncc(-c3ccccc3O)c2n1,≤ 0.01,≤ 0.1,
COC(=O)N1CCC[C@H]1CNc1ccn2ncc(-c3ccccc3OC)c2n1,≤ 0.01,≤ 0.1,
COc1ncccc1-c1cnn2ccc(NCCCC(F)(F)F)nc12,≤ 0.01,≤ 0.1,
CC(C)Oc1ccccc1-c1cnn2ccc(NC[C@@H]3CCCN3C(=O)OC(C)(C)C)nc12,≤ 0.01,≤ 0.01,
CN(C(=O)CC(C)(C)C)[C@H]1CCN(c2ccc3ncc(-c4cccnc4O)n3n2)C1,,,"IC50 [2, 5]: ≤ 0.1 µM; IC50 [3, 5]: ≤ 1 µM"
COc1ccccc1-c1cnn2ccc(NC[C@@H]3CCCN3C(=O)CC(C)(C)C)nc12,≤ 0.01,≤ 0.01,
CC(C)OC(=O)N1CCN(c2ccn3ncc(-c4cccnc4OC(C)C)c3n2)CC1,≤ 0.01,≤ 0.1,
CCOC(=O)N1CCN(c2ccn3ncc(-c4cccnc4OC)c3n2)CC1,≤ 0.01,≤ 0.1,
Cc1cc(-c2cnn3ccc(N4CC[C@H](N(C)C(=O)OC(C)(C)C)C4)nc23)ccn1,≤ 0.01,≤ 0.1,
COc1ccccc1-c1cnn2ccc(N3CC[C@H](N(C)C(=O)OC(C)(C)C)C3)nc12,≤ 0.01,≤ 0.1,
COc1ccccc1-c1cnn2ccc(NC[C@@H]3CCC(=O)N3CCC(C)(C)C)nc12,≤ 0.01,≤ 0.01,
COCc1ccccc1-c1cnn2ccc(NC[C@@H]3CCCN3C(=O)OC(C)(C)C)nc12,≤ 0.01,≤ 0.1,
COc1cnccc1-c1cnn2ccc(NC[C@@H]3CCC(=O)N3CCC(C)(C)C)nc12,≤ 0.01,≤ 0.1,
